From PubChem BioAssay (NCI)
Values joined by “and” are separate entries in the source; they are usually repeats but may differ in a detail not shown here. Equal entries are not always repeated.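 All cell lines were grown in 96-well plates and treated with compound for 48 hours. The concentration for 50% growth inhibition is given as GI50. TGI: total growth inhibition.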

Tests used:
Test in all cases: NCI tumour cell line growth inhibition, 48 h
SF-268 CNS = system: SF-268 CNS
UACC-257 melanoma = system: UACC-257 melanoma
SNB-19 CNS = system: SNB-19 CNS
SNB-75 CNS = system: SNB-75 CNS
HCT-116 colon = system: HCT-116 colon
SR leukemia = system: SR leukemia
786-0 renal = system: 786-0 renal
CAKI-1 renal = system: CAKI-1 renal
HL-60(TB) leukemia = system: HL-60(TB) leukemia
RPMI-8226 leukemia = system: RPMI-8226 leukemia

SMILES	TGI (SF-268 CNS)	TGI (UACC-257 melanoma)	TGI (SNB-19 CNS)	TGI (SNB-75 CNS)	TGI (HCT-116 colon)	TGI (SR leukemia)	TGI (786-0 renal)	TGI (CAKI-1 renal)	TGI (HL-60(TB) leukemia)	TGI (RPMI-8226 leukemia)	GI50 (HL-60(TB) leukemia)	GI50 (SNB-19 CNS)	GI50 (HCT-116 colon)	GI50 (SR leukemia)
CCCCCCCCCCCC1=C(O)C(=O)C(CC2=C(O)C(=O)C(CCCCCCCCCCC)=C(O)C2=O)=C(O)C1=O	> 100 µM	> 100 µM	73.3 µM	37.5 µM	> 100 µM	42.4 µM	> 100 µM	> 100 µM						
O=C(N/N=C/c1ccccc1)c1c(F)c(F)c(F)c(F)c1F	> 100 µM	> 100 µM	> 100 µM	> 100 µM	> 100 µM	> 100 µM		> 100 µM	> 100 µM	> 100 µM				
COc1ccc(S(=O)(=O)NC(CCC(=O)NC(N)=O)C(=O)NC(N)=O)cc1 (stereo not given)		> 100 µM	> 100 µM	> 100 µM	> 100 µM	> 100 µM	> 100 µM	> 100 µM	> 100 µM	> 100 µM				
Nc1c(C(=O)O)c2ccc([N+](=O)[O-])cc2c(=O)n1-c1nc2ccccc2s1	> 100 µM		> 100 µM	> 100 µM	> 100 µM	> 100 µM	> 100 µM	> 100 µM		> 100 µM				
O=[N+]([O-])/C=C/c1cc(Cl)c(/C=C/[N+](=O)[O-])cc1Cl	16.5 µM	5.25 µM	6.91 µM	29.6 µM	7.1 µM					3.99 µM				
CC(=O)c1c(-c2ccc(Cl)cc2)c(C#N)c(=S)n(C2OC(CO)C(O)C(O)C2O)c1C (stereo not given)	> 100 µM	> 100 µM	84.9 µM	> 100 µM	> 100 µM	87.6 µM	> 100 µM		54 µM					
CCc1c(O)nc(Nc2nc3ccccc3[nH]2)[nH]c1=O	> 100 µM	> 100 µM	> 100 µM	> 100 µM	> 100 µM	> 100 µM	> 100 µM		> 100 µM					
[C-]#[O+].[Cl][Sn]([Cl])[Cl].[Cl][Sn]([Cl])[Cl].[Pt].c1cnc2c(c1)ccc1cccnc12	> 79 µM	> 100 µM	> 27.1 µM	61.6 µM	> 24.6 µM			> 100 µM	7.95 µM	> 65.8 µM				
CC(=O)CCC1(C(=O)OCC(C)C)CCCC1=O (stereo not given)	> 100 µM	> 100 µM	> 100 µM	> 100 µM	> 100 µM		> 100 µM	> 100 µM	> 100 µM					
Cc1n[nH]c(=O)n1-n1cccc1	> 100 µM	> 100 µM	> 100 µM	> 100 µM	> 100 µM	> 100 µM	> 100 µM	> 100 µM		> 100 µM				
CC1CC(c2ccccc2)=Nc2ccccc2S1 (stereo not given)	> 100 µM	> 100 µM	> 100 µM	> 100 µM	> 100 µM	> 100 µM		> 100 µM	> 100 µM	> 100 µM				
COc1cccc(/C=N/[N-]C(N)=O)c1[O-].[Cu+2].[OH3+]	32.9 µM	28.5 µM	8.97 µM and 28.5 µM	25.1 µM	15.9 µM	43.9 µM	30.3 µM		> 100 µM	> 100 µM	10.8 µM	14.9 µM	4.09 µM	5.67 µM
CC1(C)C(=O)/C(=C/c2ccccc2)C(C)(C)C1(C)C		> 100 µM	> 100 µM	> 100 µM	> 100 µM	> 74.2 µM	> 100 µM	> 100 µM	46.7 µM	> 100 µM				
Cc1nc(C(=Nc2ccc(Br)cc2)Nn2cnnc2)no1		> 100 µM	> 100 µM	> 100 µM	> 100 µM		> 100 µM	> 100 µM		> 100 µM				
CC(C)(NO)/C(=N\O)c1ccccc1	> 10 µM	> 10 µM	> 10 µM		> 10 µM	> 10 µM	> 10 µM	> 10 µM	> 10 µM	> 10 µM				
CC[C@]1(c2ccc3c(c2)OCO3)C=[N+]([O-])O[C@H](OC2CCCC2(c2ccccc2)c2ccccc2)[C@@H]1OC(C)=O (stereo not given in full)	6.64 µM	7.62 µM	12.7 µM	5.93 µM	3.67 µM	> 21.7 µM	3.77 µM	> 100 µM	12.1 µM					
COc1ccc(C(=CCC(C)C2CCC3[C@@H]4C(OC(C)=O)CC5CC(OC(C)=O)CC[C@]5(C)C4CC(OC(C)=O)[C@]23C)c2ccc(OC)cc2)cc1 (stereo not given in full)	> 100 µM	> 100 µM	> 100 µM	> 100 µM	> 100 µM	77.5 µM	> 100 µM		45.3 µM	> 100 µM				
O=C(O)C1CCC(=O)N1C(=O)COc1cc(Cl)c(Cl)cc1Cl (stereo not given)	> 100 µM	> 100 µM	> 100 µM	> 100 µM	> 100 µM			> 100 µM						
COc1ccc(O[C@H](CO)C[C@@H]2COC(C)(C)O2)cc1	> 100 µM	> 100 µM	> 100 µM	> 100 µM	> 100 µM	> 100 µM	> 100 µM	> 100 µM		> 100 µM				
COc1cc(C2c3cc4c(cc3[C@@H](Nc3ccc(F)cc3)C3COC[C@H]23)OCO4)cc(OC)c1O (stereo not given in full)	> 25 µM	> 25 µM	16.2 µM	17 µM	7.9 µM	5.5 µM	6.35 µM		2.29 µM	13.1 µM				
COc1cc2c(cc1OC)C1=C(C=O)c3ccc(OC)c(OC)c3C(O)N1CC2 (stereo not given)	> 100 µM	50 µM	> 100 µM	38.6 µM	> 100 µM		> 100 µM	> 100 µM	75.2 µM	38.3 µM				
CC1(C)N=C(/C(Cl)=[N+](/[O-])C(=O)c2ccc(Cl)cc2)C(C)(C)N1O	89.2 µM	38.1 µM	> 100 µM		32.5 µM	> 100 µM		42.7 µM	60.7 µM	72.6 µM				
C[n+]1c2ccccc2n2c3ccccc3c(NCCCn3ccnc3)c(C#N)c21	6.98 µM	35.5 µM	> 31.2 µM	4.66 µM	10.1 µM	> 100 µM	10.6 µM	> 43.1 µM	20.3 µM					
CC(C)C(NCc1c2ccccc2[n+](C)c2ccccc12)C(=O)O (stereo not given)	10.9 µM	19.5 µM	33 µM	18 µM	13.6 µM		15.6 µM	12.1 µM	> 21 µM	5.15 µM				
